# Reference: patent publication US20230227511A1, “THERAPEUTIC OR […] FOR INFECTIOUS DISEASE” (NIPPON MEDICAL SCHOOL FOUNDATION, priority 2020, published 2023)
# What was measured:
# sepsis mouse models = assay: Administration of the 50-amino acid peptide (PTX3N50) to sepsis mouse models; type: in vivo; conditions: peptide not fused to Fc
# [1] = test system: vascular endothelial cells; conditions: Patent Document 1; cited from earlier work
substance,measurement,setting,value
"PTX3N50: 50-amino acid peptide on the N-terminal side of PTX3, not fused to Fc (ENSDDYDLMYVNLDNEIDNGLHPTEDPTPCACGQEHSEWDKLFIMLENSQ; UniProt P26022 18-67, looked up, fragment)",survival percentage of the sepsis mouse models,sepsis mouse models,could not improve the survival percentage
same,action to suppress histone cytotoxicity against vascular endothelial cells,[1],has an action to suppress histone cytotoxicity
